These results are taken from ChEMBL document CHEMBL1201862, “PubChem BioAssay data set” (2004).

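Grown in 96-well plates, cells were treated for 48 hours with each compound at five concentrations. Insufficient inhibition: endpoint recorded as highest concentration tested. GI50 = concentration required for 50% inhibition of growth.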 Active and inactive are the calls of the source. Rule as the data show it: active = GI50 up to about 1.1 µM and inactive = higher.

What all share (test): growth of human tumour cells (NCI), 48 h
Test [1] has as its system NCI-H23.
Test [2] deals with IGROV-1.
For test [3], the system named is LOX IMVI.
The subject of test [4] is SK-MEL-2.
Test [5] deals with CCRF-CEM.
Test [6] relates to HCC 2998.
Test [7] deals with EKVX.
Test [8] deals with SNB-19.
The test system of test [9] is HT-29.
The test system of test [10] is HCT-15.
The test system of test [11] is K562.
Test [12] deals with OVCAR-5.
The test system of test [13] is M14.
In test [14] the test system is UACC-257.
Test [15] relates to Malme-3M.
Test [16] has as its system CAKI-1.
Test [17] relates to MOLT-4.
In test [18] the test system is RXF 393.

Turning to `N#C/C(=C\c1ccc(O)c(O)c1)c1c(C#N)c(N)nn1-c1ccccc1`, the GI50 is 7.43 µM (inactive) in test [1]; 4.17 µM (inactive) in [2]; 5.05 µM (inactive) in test [3]; 13 µM (inactive) in test [4]; 4.11 µM (inactive) in test [5]; 9.66 µM (inactive) in test [6]. Moreover, the GI50 is 7.45 µM (inactive) in test [7]; 7.19 µM (inactive) in [8]; 22 µM (inactive) in test [9]; 11.7 µM in [10]; 3.94 µM (inactive) in [11]; 33 µM (inactive) in test [12]. The GI50 in test [13] is 9.29 µM (inactive); in [14], 15.5 µM (inactive); in [15], 4.95 µM (inactive); in test [16], 1.59 µM (inactive).

On to `Cc1ccc(NC(=O)CCc2nc(N)nc(N)c2-c2ccccc2)cc1C`, for which the GI50 in test [1], in [2], in test [17], in test [4], in test [5] and in test [6] was > 100 µM (inactive) in each case. In addition, the GI50 is > 100 µM (inactive) in test [7]; > 100 µM (inactive) in test [8]; > 100 µM (inactive) in test [9]; over 100 µM in [10]; > 100 µM (inactive) in test [11]; > 100 µM (inactive) in test [12]. Besides, the GI50 in [13], in test [14], in test [15] and in [16] was > 100 µM (inactive) throughout.

In the case of `O=C(Nc1c(O)[nH]c(=S)[nH]c1=O)c1ccco1`, the GI50 in test [1], in test [2], in [17], in test [3], in [4] and in test [5] was > 100 µM (inactive) throughout. Further, the GI50 in [8] was > 100 µM (inactive); in test [9], > 100 µM (inactive); in test [10], over 100 µM; in [11], > 100 µM (inactive); in [12] it was > 100 µM (inactive); in [13], > 100 µM (inactive). The GI50 in [14], in test [15] and in [16] was > 100 µM (inactive) in each case.

For `CCOC(=N)/C(=C1\OC(=N)C(c2ccc(Cl)cc2)=C1O)c1ccc(Cl)cc1`, the GI50 is 15.3 µM (inactive) in test [1]; 28.9 µM (inactive) in test [2]; 17.9 µM (inactive) in test [17]; 13.9 µM (inactive) in test [3]; 18.2 µM (inactive) in test [5]; 18.1 µM (inactive) in [6]. The GI50 was 18.1 µM (inactive) in [7]; 13.8 µM (inactive) in [18]; 22.7 µM (inactive) in test [8]; 23.2 µM (inactive) in test [9]; 19.8 µM (inactive) in test [11]; 19.4 µM (inactive) in [12]. The GI50 in test [13] was 17.4 µM (inactive); in test [14], 17.2 µM (inactive); in [15] it was 14.3 µM (inactive); in test [16] it was 23.2 µM (inactive).

As to `Cc1ccc(S(=O)(=O)OCC23CCC(C2)C2CC23)cc1` (stereo not drawn), the GI50 in test [1], in [2], in test [17], in test [3], in [5] and in test [6] was > 100 µM (inactive) throughout. The GI50 in test [8] is > 100 µM (inactive); in test [9], > 100 µM (inactive); in test [10] it was over 100 µM; in test [11] it was > 100 µM (inactive); in test [12] it was > 100 µM (inactive); in test [13], > 100 µM (inactive). The GI50 in [14] is 52.1 µM (inactive); in test [15], > 100 µM (inactive); in [16] it was > 100 µM (inactive).

As to `C=C(Br)C(C)(Cl)CCC(Br)C(C)(C)Br` (stereo not drawn), the GI50 was 72.8 µM (inactive) in test [1]; > 100 µM (inactive) in [2]; 31 µM (inactive) in [17]; 16.6 µM (inactive) in test [3]; 29.2 µM (inactive) in test [4]; 22.5 µM (inactive) in test [5]. The GI50 was 22.4 µM (inactive) in test [18]; 47.2 µM (inactive) in test [9]; 67 µM in [10]; 27.4 µM (inactive) in test [11]; 37.2 µM (inactive) in test [12]; 50.4 µM (inactive) in test [13]. Besides, the GI50 was 78.7 µM (inactive) in [14], 69 µM (inactive) in [15] and > 100 µM (inactive) in test [16].

With `CC(=O)O/N=C/c1ncccc1CO`, the GI50 in test [1], in test [2], in [17], in test [3], in test [4] and in [5] was > 100 µM (inactive) throughout. Besides, the GI50 was > 100 µM (inactive) in test [7]; > 100 µM (inactive) in test [18]; > 100 µM (inactive) in test [8]; > 100 µM (inactive) in test [9]; over 100 µM in test [10]; > 100 µM (inactive) in test [11]. The GI50 in test [12], in test [13], in test [14], in [15] and in test [16] was > 100 µM (inactive) in each case.

On to `CC12O[C@H](c3ccccc3)[C@H](c3ccccc3)N1C(=O)C1(C(=O)OCc3ccccc3)CC12` (stereo partly drawn), for which the GI50 was > 100 µM (inactive) in test [2]; 18.2 µM (inactive) in [17]; > 100 µM (inactive) in test [3]; 33.3 µM (inactive) in [4]; 28.6 µM (inactive) in test [5]; > 100 µM (inactive) in [6]. Further, the GI50 in [8] is > 100 µM (inactive); in test [9], 76 µM (inactive); in test [10], 86.5 µM; in [11], 37.3 µM (inactive); in [12], > 100 µM (inactive); in [13] it was 64.7 µM (inactive). In addition, the GI50 was 59.8 µM (inactive) in test [14], > 100 µM (inactive) in [15] and > 100 µM (inactive) in test [16].

With `Nc1ncnc2c1ncn2[C@]1(CO)C=C(CO)C(O)C1O` (stereo partly drawn), the GI50 in [1], in test [17], in test [3], in [4], in [6] and in test [18] was > 100 µM (inactive) throughout. Besides, the GI50 in [8] is > 100 µM (inactive); in [9] it was > 100 µM (inactive); in [10], over 100 µM; in test [12], 80.4 µM (inactive); in test [13], > 100 µM (inactive); in test [14], > 100 µM (inactive). Also, the GI50 in test [15] and in test [16] was > 100 µM (inactive) throughout.

As to `Nc1nc2c3c(ncn3CC(O)CO2)n1` (stereo not drawn), the GI50 in [1], in test [2], in test [17], in [3], in [4] and in test [5] was > 100 µM (inactive) in each case. Moreover, the GI50 in test [6] was > 100 µM (inactive); in test [18] it was > 100 µM (inactive); in test [8], > 100 µM (inactive); in test [9], 7.6 µM (inactive); in test [10], over 100 µM; in [11] it was > 100 µM (inactive). Moreover, the GI50 in test [12], in [13], in [14], in test [15] and in [16] was > 100 µM (inactive) throughout.

For the molecule `COc1cc2nc(NCCCCCNC(=O)c3ccco3)nc(N)c2cc1OC`, the GI50 is 87.7 µM (inactive) in [1]; 41.1 µM (inactive) in test [2]; 24.8 µM (inactive) in test [17]; 19.7 µM (inactive) in test [4]; 28.5 µM (inactive) in [5]; 19.4 µM (inactive) in test [6]. Further, the GI50 in test [7] was > 100 µM (inactive); in test [18] it was 27.6 µM (inactive); in test [8], 38.2 µM (inactive); in test [9], 33.9 µM (inactive); in test [10] it was over 100 µM; in [11] it was 29.1 µM (inactive). In addition, the GI50 in test [12] is 38.3 µM (inactive); in [13], 18.5 µM (inactive); in [14], 19.5 µM (inactive); in [15], 17.4 µM (inactive); in [16], 42.6 µM (inactive).

In the case of `COc1cc(C(C)O)c[n+](CCC2CNc3ccccc32)c1` (stereo not drawn), the GI50 in [1], in test [2], in [17], in test [3], in [4] and in test [5] was > 100 µM (inactive) throughout. The GI50 in [6] was > 100 µM (inactive); in test [7], 33 µM (inactive); in [8], > 100 µM (inactive); in test [9] it was 71.6 µM (inactive); in test [10], over 100 µM; in test [11], > 100 µM (inactive). In addition, the GI50 in [13], in test [14], in test [15] and in [16] was > 100 µM (inactive) throughout.

Regarding `CC(C)COC1Sc2ccccc2S1`, the GI50 in test [1] was 22.3 µM (inactive); in [2] it was 5.35 µM (inactive); in [17], 5.05 µM (inactive); in test [3], 12.7 µM (inactive); in test [5], 27.7 µM (inactive); in [6] it was 28.7 µM (inactive). For the same molecule, the GI50 was 20 µM (inactive) in test [7]; 18.2 µM (inactive) in test [18]; 18.1 µM (inactive) in test [8]; 13.1 µM (inactive) in [9]; 22.4 µM in test [10]; 20.6 µM (inactive) in test [13]. The results for the GI50 in test [15] and in [16] were 23.6 µM (inactive) and 16.3 µM (inactive), respectively.
